From patent publication US6355785B1, “Guanosine-rich oligonucleotide integrase inhibitors” (Aronex Pharmaceuticals, Inc., priority 1993, dated 2002)
Entries after “also recorded” stand apart in the source; their conditions may differ. Like-named read-outs stand apart in the source and are kept apart here.

Legend:
[1] = test system: HIV-1RF; test: HeLa-CD4-LTR-β-galactosidase cell virus infection assay; format: cell-based
[2] = design: species or system cynomolgus monkeys; settings: cynomolgus monkey, in vivo; for AR177 plasma (CMAX): iv
Experimental: Dosing. Twelve experimentally naive cynomolgus monkeys were assigned to four groups of three animals each. Prior to dosing, each animal was lightly sedated with a combination of ketamine (1 0 mg/kg) and diazepam (0.5 mg/kg), and a catheter was introduced into the femoral artery for recording central arterial pressure. Monkeys were given a single intravenous infusion of 5, 20, or 50 mg AR177/kg or saline over ten minutes through a cephalic vein catheter using a Harvard infusion pump. Arterial blood samples were drawn at −10, +10, +20, +40, +60 and +120 minutes relative to the initiation of infusion into EDTA-containing tubes for hematology, complement factors, coagulation assay, serum chemistry, and plasma AR177 determination. At 24 hours post-infusion, blood was drawn via the femoral vein into EDTA-containing tubes for these same parameters. The concentration of AR177 in dosing solutions was confirmed post experiment by absorbance at 280 nm on a spectrophotometer. For the determination of AR177 by HPLC, the plasma fraction was obtained by low speed centrifugation of blood, and stored at −20° C. until used. Electrocardiograms (ECGs), central pressure, and heart rate were recorded continuously for 120 minutes following the initiation of doing. Table E-1 summarizes the study design. The animals were observed twice daily pharmacotoxic signs and general health beginning two days before dosing and for seven days following dosing. The monkeys were not necropsied at the end of the study.
HPLC analysis of AR177 plasma concentration. AR177 was assayed in the plasma using an anion-exchange HPLC method on a Waters HPLC system with a 626 pump, 996 photodiode array detector, 717 autosampler and Millennium system software controlled by an NEC Image 466 computer. Buffer A consisted of 0.1 M Tris base, 20% methanol, pH 12, and Buffer B consisted of 0.1 M Tris base, 1.0 M NaBr, pH 12. The anion-exchange column (Gen-Pak Fax column) was equilibrated at 80% buffer A/20% buffer B for 30 minutes before each HPLC run. Fifty microliters of 0.2˜filtered, neat plasma were analyzed per run. The elusion conditions were: a) five-minute isoaatic run at 80% A/20% B. during which the majority of the plasma proteins eluted, b) 25-minute linear gradient to 30% A/70% B during which AR177 elutes, c) five-minute Socratic run at 30% A/70% B. d) one-minute linear gradient to 100% B. e) two-minute run at 100% B for column clean-up, and fl two-minute linear gradient to 70% A/30% B for the step in the HPLC clean-up. The high pH (12) of the elusion buffers was necessary to dissociate AR177 from tissue constituents, which bind AR177 tightly around physiological pH. AR177 is completely stable at pH 12. This method can clearly distinguish between the full length AR177 and n-1, n-2, etc. species, which are potential metabolic products. The ultraviolet detection wavelength was 260 nm. The flow rate was 0.5 mL/minute in all steps. Column clean up between runs was performed by a 500 pL bolus injection of 0.1 M Tris base, 2 M NaCl, pH 10.5, followed by: a) ten-minute linear gradient to 60% A/40% B. b) one-minute linear gradient to 100% B. c) a three-minute isocratic run at 100% B and d) one-minute linear gradient to 80% A/20% B.
A standard curve was generated by spiking AR177 into cynomolgus monkey plasma in order to achieve concentrations of 0.04 to 128 μ/mL. The plasma standards and unspiked plasma (control) were run on the anion-exchange HPLC column using e above conditions. The Waters Millennium software was used to determine the area under the peak for each AR177 standard at 260 nm. The HPLC peak area versus AR177 concentration was plotted using Cricket Graph III 1.5.1 software. There were one to three HPLC replicate runs per AR177 standard. The limit of quantitation was 25 ng/mL (50 pL injection), whereas the limit of detection was 5 ng/mL (50 pL injection). […]

[3] = test system: HSV-2 (G)
[4] = test system: NIH3T3; format: cell-based
Experimental: (§1) Cytotoxicity Analysis. The cytotoxicity of T30177 was assayed as described above. […] The degree of cell proliferation was determined according to the manufacturer's instructions.
(§2) Cytotoxicity Assays. The cytotoxicity of T30177 was determined using several different cell lines and primary human cells as described above. The cytotoxicity profile obtained for log phase growing cells was variable depending upon the cell line used, while the slower growing PBMCs, PBLs, and macrophages all tolerated the compound at concentrations exceeding 100 μM as monitored using the trypan blue exclusion, [^3H]thymidine uptake, or [^3H]leucine uptake techniques.

[5] = test system: Vero; format: cell-based
Experimental: as §1, §2

[6] = test system: HIV-1IIIB; test: Long term suppression assay, MT-4 cells; format: cell-based
[7] = test system: HSV-1
[8] = test system: Punta Toro virus

Substance: 5′-gtggtgggtgggtgggt-3′ (GTGGTGGGTGGGTGGGT; phosphorothioate termini, further chemistry not given here) [T30177, pPT version of parent compound I100-15, 17 mer]
- IC50 ([1]; HIV-1RF, read-out: IC50 β-galactosidase production, virus infection assay): 0.009 µM
- direct effect on β-galactosidase enzyme activity ([1]; up to 10 μM, control experiment): no observable direct effect
- initial plasma half-life [2]: 20 to 30 min
- initial volume of distribution (Vd) of the three doses [2]: 200 to 248 mL
- metabolites in plasma [2]: No metabolites
- terminal plasma half-life [2]: approximately 24 hours
- Vd ([2]; 5 mg/kg): 247.6 ± 21.4 mL
- Vd ([2]; 20 mg/kg): 184.5 ± 14.3 mL
- Vd ([2]; 50 mg/kg): 200.7 ± 56.4 mL
- AR177 plasma (CMAX) ([2]; 5 mg/kg): 83.2 ± 7.2 µg/mL
- AR177 plasma (CMAX) ([2]; 20 mg/kg): 397.8 ± 30.8 µg/mL
- AR177 plasma (CMAX) ([2]; 50 mg/kg): 804.7 ± 226.3 µg/mL
- IC50 virus-induced cytopathogenicity ([3]; HSV-2 (G)): >200 µg/mL
- MCC minimum concentration altering normal cell morphology ([3]; HSV-2 (G) assay): 400 μg/mL
- CC50 [4]: > 100 µM
- TC25 [4]: >100 µM
- TC95 [4]: >100 µM
- CC50 [5]: > 100 µM
- TC25 [5]: >100 µM
- TC95 [5]: >100 µM
- viral DNA (PCR) 11 days after removal of drug [6]: unable to detect the presence of viral DNA; also recorded: no detectable viral cDNA
- protection of treated cells from reinfection with HIV-1IIIB ([6]; 100-fold over IC50, 4 days): no protection of cells from the second round of viral infection

Substance: 5′-gtggtgggtgggtgggt-3′ [T30177] (GTGGTGGGTGGGTGGGT; phosphorothioate termini, further chemistry not given here)
- IC50 virus-induced cytopathogenicity ([7]; HSV-1 (KOS)): >200 µg/mL
- MCC minimum concentration altering normal cell morphology ([7]; HSV-1 (KOS) assay): 400 μg/mL
- IC50 virus-induced cytopathogenicity ([7]; HSV-1 TK (B2006)): >200 µg/mL
- MCC minimum concentration altering normal cell morphology ([7]; HSV-1 TK (B2006) assay): 400 μg/mL
- IC50 virus-induced cytopathogenicity ([7]; HSV-1 TK (VMW1837)): >200 µg/mL
- MCC minimum concentration altering normal cell morphology ([7]; HSV-1 TK (VMW1837) assay): 400 μg/mL
- IC50 virus-induced cytopathogenicity ([8]; Punta Toro virus): >200 µg/mL
- MCC minimum concentration altering normal cell morphology ([8]; Punta Toro virus assay): >200 μg/mL
- Body Weights (2.5 mg/kg, Day 7): 3.1 ± 0.6
- Body Weights (2.5 mg/kg, Day 14): 3.2 ± 0.6
- Body Weights (2.5 mg/kg, Day 21): 3.2 ± 0.6
- Body Weights (2.5 mg/kg, Day 25): 3.1 ± 0.6
- Body Weights (2.5 mg/kg, Prestudy): 3.1 ± 0.5
- Body Weights (10 mg/kg, Day 7): 3.2 ± 0.7
- Body Weights (10 mg/kg, Day 14): 3.3 ± 0.7
- Body Weights (10 mg/kg, Day 21): 3.3 ± 0.7
- Body Weights (10 mg/kg, Day 25): 3.2 ± 0.7
- Body Weights (10 mg/kg, Prestudy): 3.2 ± 0.7
- treatment-related clinical sign (40 mg/kg): discoloration around the eyes in three high-dose animals
- Body Weights (40 mg/kg, Day 7): 3.2 ± 0.6
- Body Weights (40 mg/kg, Day 14): 3.3 ± 0.6
- Body Weights (40 mg/kg, Day 21): 3.2 ± 0.6
- Body Weights (40 mg/kg, Day 25): 3.1 ± 0.6
- Body Weights (40 mg/kg, Prestudy): 3.2 ± 0.6
- mortality (2.5, 10, 40 mg/kg every other day, 12 doses): No animals died
- body weight (12 doses): no effects on body weight
- ECG recordings (cynomolgus monkey, in vivo): No abnormalities
